Reference: ChEMBL document CHEMBL5729184, “Purine derivatives and the use thereof as medicament” (2022)

molecular target: Glutamate receptor ionotropic, NMDA 2B (Homo sapiens, UniProt Q13224); assay: FLIPR Assay: At the assay day cells were washed 3× with assay buffer, 10 μL buffer remained in the wells after washing. 10 μL Ca kit loading buffer (AAT Bioquest) was added to the cells and the plates were incubated with lid for 60 minutes at r.t. 20 μl assay buffer containing 60 μM glycine (20 μM final) and 3 μM glutamate (1 μM final) was added to column 1-23. Fluorescence (indicating the calcium influx as a result of the NR1/NR2B ion channel activation) was read on the FLIPRtetra device for 60 seconds to monitor the glutamate induced effects. After 2 minutes 20 μL of compound or controls (row 1-22) in assay buffer were carefully added to the wells. […] Each assay microtiter plate contained wells (in column 23 or 24) with DMSO controls instead of compound as controls for glycine/glutamate induced fluorescence (high controls) and wells with 1 μM of a reference NR2b NAM as low controls (Compound 22; reference: Layton, Mark E et al, ACS Chemical Neuroscience 2011, 2(7), 352-362).
Sequence (Q13224 whole entry): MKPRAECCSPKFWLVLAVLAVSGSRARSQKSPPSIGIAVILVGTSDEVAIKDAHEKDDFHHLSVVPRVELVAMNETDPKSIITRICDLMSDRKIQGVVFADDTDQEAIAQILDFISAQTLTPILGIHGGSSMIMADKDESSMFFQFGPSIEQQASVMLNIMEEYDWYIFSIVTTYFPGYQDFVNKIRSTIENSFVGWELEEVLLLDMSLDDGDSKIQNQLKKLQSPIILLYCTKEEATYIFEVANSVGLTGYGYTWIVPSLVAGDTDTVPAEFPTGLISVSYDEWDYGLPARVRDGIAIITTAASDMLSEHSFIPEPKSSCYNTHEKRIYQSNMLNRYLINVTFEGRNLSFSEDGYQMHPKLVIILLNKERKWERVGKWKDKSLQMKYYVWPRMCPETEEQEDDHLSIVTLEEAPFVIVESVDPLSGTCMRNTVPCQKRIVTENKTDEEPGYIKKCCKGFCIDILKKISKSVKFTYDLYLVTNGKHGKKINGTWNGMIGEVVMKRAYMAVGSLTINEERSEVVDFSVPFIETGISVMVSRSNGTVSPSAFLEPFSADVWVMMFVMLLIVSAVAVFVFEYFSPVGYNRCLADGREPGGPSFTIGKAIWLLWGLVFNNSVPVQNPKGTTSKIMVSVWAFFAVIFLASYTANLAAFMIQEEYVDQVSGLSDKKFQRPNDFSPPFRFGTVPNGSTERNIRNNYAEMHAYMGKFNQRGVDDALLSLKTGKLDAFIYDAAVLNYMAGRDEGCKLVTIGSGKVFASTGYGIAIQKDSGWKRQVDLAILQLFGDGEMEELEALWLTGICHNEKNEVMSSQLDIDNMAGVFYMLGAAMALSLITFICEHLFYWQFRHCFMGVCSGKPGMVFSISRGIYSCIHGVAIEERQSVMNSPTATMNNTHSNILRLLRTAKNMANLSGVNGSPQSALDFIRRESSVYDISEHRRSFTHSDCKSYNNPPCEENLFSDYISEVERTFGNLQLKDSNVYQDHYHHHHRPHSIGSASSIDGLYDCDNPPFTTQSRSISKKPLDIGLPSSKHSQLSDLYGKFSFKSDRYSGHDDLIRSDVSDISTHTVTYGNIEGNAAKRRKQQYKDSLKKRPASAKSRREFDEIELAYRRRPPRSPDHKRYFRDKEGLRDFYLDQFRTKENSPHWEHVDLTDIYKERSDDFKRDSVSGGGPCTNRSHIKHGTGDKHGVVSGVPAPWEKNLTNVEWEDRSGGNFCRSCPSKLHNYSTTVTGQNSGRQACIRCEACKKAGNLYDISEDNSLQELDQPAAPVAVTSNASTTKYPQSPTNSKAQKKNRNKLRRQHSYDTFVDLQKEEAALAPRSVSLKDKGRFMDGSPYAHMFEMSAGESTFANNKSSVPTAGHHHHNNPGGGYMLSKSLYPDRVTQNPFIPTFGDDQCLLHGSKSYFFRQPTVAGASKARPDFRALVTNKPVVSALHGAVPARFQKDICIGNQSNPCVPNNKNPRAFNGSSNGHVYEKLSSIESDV

Compound | IC50
Cc1cccc(COC(=O)N2CCOC(c3nc4cncnc4[nH]3)C2)c1 (stereo not given) | 322 nM
O=C(OCc1cccc(F)c1F)N1CCOC(c2nc3cncnc3[nH]2)C1 (stereo not given) | 60 nM
Cc1ccc(COC(=O)N2CCOC(c3nc4cncnc4[nH]3)C2)cc1 (stereo not given) | 67 nM
Cc1ncnc2[nH]c(C3CN(C(=O)OCc4ccccc4F)CCO3)nc12 (stereo not given) | 385 nM
O=C(OCc1ccc(F)cc1)N1CCOC(c2nc3cncnc3[nH]2)C1 (stereo not given) | 107 nM
O=C(OCc1ccc(F)cc1Cl)N1CCOC(c2nc3cncnc3[nH]2)C1 (stereo not given) | 90 nM
Cc1c(F)cccc1COC(=O)N1CCOC(c2nc3cncnc3[nH]2)C1 (stereo not given) | 520 nM
O=C(OCc1ccccc1)N1CCOC(c2nc3cncnc3[nH]2)C1 (stereo not given) | 114 nM
Cc1ncnc2[nH]c(C3CN(C(=O)OCc4ccc(F)cc4)CCO3)nc12 (stereo not given) | 637 nM
O=C(OCc1ccc(Cl)c(F)c1)N1CCOC(c2nc3cncnc3[nH]2)C1 (stereo not given) | 314 nM
Cc1ccc(COC(=O)N2CCOC(c3nc4cncnc4[nH]3)C2)c(F)c1 (stereo not given) | 49 nM

Further compounds by falling IC50, results first:

IC50 | Compound
520 nM | O=C(OCc1ccc(F)c(F)c1)N1CCOC(c2nc3cncnc3[nH]2)C1 (stereo not given)
295 nM | O=C(OCc1cccc(F)c1)N1CCOC(c2nc3cncnc3[nH]2)C1 (stereo not given)
234 nM | Cc1cc(F)ccc1COC(=O)N1CCOC(c2nc3cncnc3[nH]2)C1 (stereo not given)
150 nM | Cc1ccc(COC(=O)N2CCOC(c3nc4c(C)ncnc4[nH]3)C2)cc1 (stereo not given)
118 nM | Cc1cccc(F)c1COC(=O)N1CCOC(c2nc3cncnc3[nH]2)C1 (stereo not given)
113 nM | O=C(OCc1ccc(Cl)cc1)N1CCOC(c2nc3cncnc3[nH]2)C1 (stereo not given)
111 nM | O=C(OCc1c(F)cccc1F)N1CCOC(c2nc3cncnc3[nH]2)C1 (stereo not given)
102 nM | O=C(OCc1ccc(F)cc1F)N1CCOC(c2nc3cncnc3[nH]2)C1 (stereo not given)
100 nM | Cc1ccc(COC(=O)N2CCO[C@H](c3nc4cncnc4[nH]3)C2)cc1F
88 nM | O=C(OCc1ccccc1Cl)N1CCOC(c2nc3cncnc3[nH]2)C1 (stereo not given)
84 nM | O=C(OCc1c(F)cc(F)cc1F)N1CCOC(c2nc3cncnc3[nH]2)C1 (stereo not given)
83 nM | Cc1cccc(COC(=O)N2CCOC(c3nc4cncnc4[nH]3)C2)c1F (stereo not given)
74 nM | O=C(OCc1ccccc1F)N1CCOC(c2nc3cncnc3[nH]2)C1 (stereo not given)
45 nM | O=C(OCc1ccc(C(F)F)cc1)N1CCOC(c2nc3cncnc3[nH]2)C1 (stereo not given)
